In patent US6498155B1, “Methods of treating thrombocytopenia” (SmithKline Beecham Corporation, priority 1998, dated 2002):

Experiments:
[1] = system: 32D-mpl cells; details: concentration 1-30 uM
Description: (§1) 32D-mpl cells express Tpo-R and their survival is dependent on the presence of TPO. […] In this assay, purified human CD34+ progenitor cells were incubated in liquid culture with test compounds for 10 days and the number of cells expressing the transmembrane glycoprotein CD41 (gpIIb), a megakaryocytic marker, was then measured by flow cytometry (see Cwirla, S. E. et al Science, 1997, 276, 1696-1699).

[2] = system: purified human CD34+ progenitor cells; details: concentrations 1-30 uM; 10 days liquid culture, CD41 by flow cytometry
Description: as §1

Cl.Cl.Cl.Cl.Cl.Cl.Cl.Cl.O.O.c1cc(CN2CCCNCCNCCCNCC2)ccc1CN1CCCNCCNCCCNCC1 [Example 1, 1,1′-[1,4-Phenylenebis(methylene)]bis[1,4.8,11-tetraazacyclotetradecane]octahydrochloride Dihydrate]
proliferation of 32D-mpl cells [1]: promoted the proliferation | activity in the CD41 megakaryocytic assay [2]: showed activity
